Laboratory results taken from PubChem BioAssay AID2060625 (Molecular Pharmacology Branch, DTP, NCI, 2025).
Where “and” joins values, the source holds several entries; their conditions need not be identical. Equal values may be shown once.

Tested on: 186277-243-T-J2-PDC spheroids with HUVEC/MSC, viability
Assay: Anticancer human tumor 186277-243-T-J2-PDC patient-derived colon adenocarcinoma cell line growth inhibition [CLK]
Conditions: for viability, T/C: stronger effect = lower value
In short: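 Multi-cell-type spheroids combined patient-derived tumor cells with HUVEC endothelial cells and human mesenchymal stem cells. Paired agents were dosed in half-log steps down from about clinical Cmax, or from 10 microM where Cmax was unknown.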

[1] = curve of first compound, second compound 0.0316 µM
[2] = curve of first compound, second compound 0.1 µM
[3] = curve of first compound, second compound 0.316 µM
[4] = curve of first compound, second compound 1 µM
[5] = curve of first compound, second compound 3.16 µM
[6] = curve of first compound, second compound 10 µM
[7] = second compound 0.0316 µM, first compound 0.0316 µM
[8] = second compound 0.0316 µM, first compound 0.1 µM
[9] = second compound 0.0316 µM, first compound 0.316 µM
[10] = second compound 0.0316 µM, first compound 1 µM
[11] = second compound 0.0316 µM, first compound 3.16 µM
[12] = second compound 0.0316 µM, first compound 10 µM
[13] = second compound 0.1 µM, first compound 0.0316 µM
[14] = second compound 0.1 µM, first compound 0.1 µM
[15] = second compound 0.1 µM, first compound 0.316 µM
[16] = second compound 0.1 µM, first compound 1 µM
[17] = second compound 0.1 µM, first compound 3.16 µM
[18] = second compound 0.1 µM, first compound 10 µM
[19] = second compound 0.316 µM, first compound 0.0316 µM
[20] = second compound 0.316 µM, first compound 0.1 µM
[21] = second compound 0.316 µM, first compound 0.316 µM
[22] = second compound 0.316 µM, first compound 1 µM
[23] = second compound 0.316 µM, first compound 3.16 µM
[24] = second compound 0.316 µM, first compound 10 µM
[25] = second compound 1 µM, first compound 0.0316 µM
[26] = second compound 1 µM, first compound 0.1 µM
[27] = second compound 1 µM, first compound 0.316 µM
[28] = second compound 1 µM, first compound 1 µM
[29] = second compound 1 µM, first compound 3.16 µM
[30] = second compound 1 µM, first compound 10 µM
[31] = second compound 3.16 µM, first compound 0.0316 µM
[32] = second compound 3.16 µM, first compound 0.1 µM
[33] = second compound 3.16 µM, first compound 0.316 µM
[34] = second compound 3.16 µM, first compound 1 µM
[35] = second compound 3.16 µM, first compound 3.16 µM
[36] = second compound 3.16 µM, first compound 10 µM
[37] = second compound 10 µM, first compound 0.0316 µM
[38] = second compound 10 µM, first compound 0.1 µM
[39] = second compound 10 µM, first compound 0.316 µM
[40] = second compound 10 µM, first compound 1 µM
[41] = second compound 10 µM, first compound 3.16 µM
[42] = second compound 10 µM, first compound 10 µM
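Also: compound exposure lasted seven days before readout.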
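For viability, T/C in this document: 100% = DMSO vehicle control wells.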

For `NC(=O)C(=Cn1cnc(-c2cc(C(F)(F)F)cc(C(F)(F)F)c2)n1)c1cncnc1` + CNC(=O)c1ccc(Nc2nc(OC3CCCC3)c3c(-c4ccc5nc(C)oc5c4)c[nH]c3n2)c(OC)c1, the IC50 [1] was 152 nM, the IC50 [2] was 46 nM and the IC50 [3] was less than 9.49 nM. The IC50 [4] was less than 9.49 nM, the IC50 [5] was less than 9.49 nM and the IC50 [6] was less than 9.49 nM. For the same compound, the viability, T/C (second compound 0.0316 µM, first compound 0.00949 µM) was 88.5%, the viability, T/C (second compound 0.0316 µM, first compound 0.03 µM) was 84.2% and the viability, T/C (second compound 0.0316 µM, first compound 0.0949 µM) was 79.1%. For the same compound, the viability, T/C (second compound 0.0316 µM, first compound 0.3 µM) was 7.94%, the viability, T/C (second compound 0.0316 µM, first compound 0.949 µM) was 3.02% and the viability, T/C (second compound 0.0316 µM, first compound 3 µM) was 5.16%. For the same compound, the viability, T/C (second compound 0.1 µM, first compound 0.00949 µM) was 54.5%, the viability, T/C (second compound 0.1 µM, first compound 0.03 µM) was 55.2% and the viability, T/C (second compound 0.1 µM, first compound 0.0949 µM) was 42.1%. The viability, T/C (second compound 0.1 µM, first compound 0.3 µM) was 6.58%, the viability, T/C (second compound 0.1 µM, first compound 0.949 µM) was 3.16% and the viability, T/C (second compound 0.1 µM, first compound 3 µM) was 2.39%. For the same compound, the viability, T/C (second compound 0.316 µM, first compound 0.00949 µM) was 36.4%, the viability, T/C (second compound 0.316 µM, first compound 0.03 µM) was 37.7% and the viability, T/C (second compound 0.316 µM, first compound 0.0949 µM) was 17.6%. The viability, T/C (second compound 0.316 µM, first compound 0.3 µM) was 2.14%, the viability, T/C (second compound 0.316 µM, first compound 0.949 µM) was 2.54% and the viability, T/C (second compound 0.316 µM, first compound 3 µM) was 1.77%. It also gave a viability, T/C (second compound 1 µM, first compound 0.00949 µM) of 25.6%, a viability, T/C (second compound 1 µM, first compound 0.03 µM) of 24.7% and a viability, T/C (second compound 1 µM, first compound 0.0949 µM) of 7.44%. It also gave a viability, T/C (second compound 1 µM, first compound 0.3 µM) of 2.4%, a viability, T/C (second compound 1 µM, first compound 0.949 µM) of 1.17% and a viability, T/C (second compound 1 µM, first compound 3 µM) of 2.9%. For the same compound, the viability, T/C (second compound 3.16 µM, first compound 0.00949 µM) was 26.8%, the viability, T/C (second compound 3.16 µM, first compound 0.03 µM) was 24.6% and the viability, T/C (second compound 3.16 µM, first compound 0.0949 µM) was 3.89%. For the same compound, the viability, T/C (second compound 3.16 µM, first compound 0.3 µM) was 0.59%, the viability, T/C (second compound 3.16 µM, first compound 0.949 µM) was 2.87% and the viability, T/C (second compound 3.16 µM, first compound 3 µM) was 3.05%. The viability, T/C (second compound 10 µM, first compound 0.00949 µM) was 28.3%, the viability, T/C (second compound 10 µM, first compound 0.03 µM) was 24.6% and the viability, T/C (second compound 10 µM, first compound 0.0949 µM) was 4.11%. For the same compound, the viability, T/C (second compound 10 µM, first compound 0.3 µM) was 4.12%, the viability, T/C (second compound 10 µM, first compound 0.949 µM) was 0.92% and the viability, T/C (second compound 10 µM, first compound 3 µM) was 1.85%.
For `CC(=O)O[C@H]1C(=O)[C@@]2(C)[C@H]([C@H](OC(=O)c3ccccc3)[C@]3(O)C[C@H](OC(=O)[C@H](O)[C@@H](NC(=O)c4ccccc4)c4ccccc4)C(C)=C1C3(C)C)[C@]1(OC(C)=O)CO[C@@H]1C[C@@H]2O` + CNC(=O)c1ccc(Nc2nc(OC3CCCC3)c3c(-c4ccc5nc(C)oc5c4)c[nH]c3n2)c(OC)c1, the IC50 [1] was 260 nM, the IC50 [2] was greater than 10000 nM and the IC50 [3] was less than 31.6 nM. The IC50 [4] was less than 31.6 nM, the IC50 [5] was less than 31.6 nM and the IC50 [6] was less than 31.6 nM. The viability, T/C [7] was 73.2%, the viability, T/C [8] was 73.2% and the viability, T/C [9] was 45.2%. It also gave a viability, T/C [10] of 26.3%, a viability, T/C [11] of 27.7% and a viability, T/C [12] of 59.1%. For the same compound, the viability, T/C [13] was 64.4%, the viability, T/C [14] was 85.1% and the viability, T/C [15] was 128%. For the same compound, the viability, T/C [16] was 142%, the viability, T/C [17] was 156% and the viability, T/C [18] was 166%. For the same compound, the viability, T/C [19] was 40.4%, the viability, T/C [20] was 64% and the viability, T/C [21] was 96%. It also gave a viability, T/C [22] of 105%, a viability, T/C [23] of 110% and a viability, T/C [24] of 94.6%. The viability, T/C [25] was 31.5%, the viability, T/C [26] was 44.1% and the viability, T/C [27] was 53.2%. For the same compound, the viability, T/C [28] was 53.3%, the viability, T/C [29] was 61% and the viability, T/C [30] was 65.5%. It also gave a viability, T/C [31] of 32.4%, a viability, T/C [32] of 44.6% and a viability, T/C [33] of 40.2%. For the same compound, the viability, T/C [34] was 48.4%, the viability, T/C [35] was 44.7% and the viability, T/C [36] was 50%. The viability, T/C [37] was 30.1%, the viability, T/C [38] was 36.4% and the viability, T/C [39] was 41%. The viability, T/C [40] was 39.5%, the viability, T/C [41] was 45.2% and the viability, T/C [42] was 47.6%.
`CC(Nc1ccc2c(c1)OCCn1cc(N3C(=O)OCC3C(F)F)nc1-2)C(N)=O` (stereo not drawn) was tested, and the viability, T/C (compound 0.0316 µM) was 96.2%, the viability, T/C (compound 0.1 µM) was 103% and 104% and the viability, T/C (compound 0.316 µM) was 80% and 80.6%. The viability, T/C (compound 1 µM) was 65.2% and 58.1%, the viability, T/C (compound 3.16 µM) was 58.7% and 53.7% and the viability, T/C (compound 10 µM) was 49.9% and 37.6%. The IC50 (curve of compound) was > 10000 nM and 2380 nM.
For `C=CC(=O)N1CCN(c2nc(=O)n(-c3c(C)ccnc3C(C)C)c3nc(-c4c(O)cccc4F)c(F)cc23)C(C)C1` (stereo not drawn) + CN1CCN(c2cc(C(=O)Nc3cc4cc(-c5cnn(C)c5)ccc4cn3)ccn2)CC1, the IC50 [1] was greater than 10000 nM, the IC50 [2] was greater than 10000 nM and the IC50 [3] was less than 31.6 nM. For the same compound, the IC50 [4] was less than 31.6 nM, the IC50 [5] was less than 31.6 nM and the IC50 [6] was less than 31.6 nM. For the same compound, the viability, T/C [7] was 97.2%, the viability, T/C [8] was 108% and the viability, T/C [9] was 102%. It also gave a viability, T/C [10] of 98.8%, a viability, T/C [11] of 102% and a viability, T/C [12] of 86.6%. The viability, T/C [13] was 102%, the viability, T/C [14] was 81% and the viability, T/C [15] was 90.5%. It also gave a viability, T/C [16] of 84.1%, a viability, T/C [17] of 86.2% and a viability, T/C [18] of 72.4%. The viability, T/C [19] was 29.7%, the viability, T/C [20] was 28.8% and the viability, T/C [21] was 29.5%. The viability, T/C [22] was 24.8%, the viability, T/C [23] was 30.8% and the viability, T/C [24] was 11%. For the same compound, the viability, T/C [25] was 0.72%, the viability, T/C [26] was 1.4% and the viability, T/C [27] was 0.59%. For the same compound, the viability, T/C [28] was 1.74%, the viability, T/C [29] was 1.4% and the viability, T/C [30] was 1.65%. The viability, T/C [31] was 0.98%, the viability, T/C [32] was 1.19% and the viability, T/C [33] was 1.22%. It also gave a viability, T/C [34] of 2.38%, a viability, T/C [35] of 2.84% and a viability, T/C [36] of 1.94%. For the same compound, the viability, T/C [37] was 0.63%, the viability, T/C [38] was 0.71% and the viability, T/C [39] was 1.36%. The viability, T/C [40] was 1.03%, the viability, T/C [41] was 2.23% and the viability, T/C [42] was 1.12%.
